From the supplement of paper PMC10307832

What was measured:
Assay in all cases: relative viability (nuclei count vs DMSO), 5 days (fraction); higher = more cells survive
[1] = compound: Cc1ccc(C(=O)N(CCCN)[C@@H](c2nc3cc(Cl)ccc3c(=O)n2Cc2ccccc2)C(C)C)cc1 [Ispinesib]
In short: (§1)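 Five library-drug doses, separated by factors of √10, were pinned into 1536-well plates holding lung cancer cell lines after an overnight stay at 37 °C. Cells were fixed, permeabilised and Hoechst-stained in one step after 5 days without medium change, then imaged at 4×. Viability compares treated-well with vehicle-well nuclei, counted in MetaXpress, as a median across plates. Passing plates had control CV below 25% and at least one doubling.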

[2] = compound: C[C@]1(O)C[C@@H](c2nc(-c3ccc4ccc(-c5ccccc5)nc4c3)c3c(N)nccn32)C1 [Linsitinib]
In short: as §1

[3] = compound: C[C@]1(O)C[C@@H](c2nc(-c3ccc4ccc(-c5ccccc5)nc4c3)c3c(N)nccn32)C1 [Linsitinib] + Cc1nc(NC(=O)N2CCC[C@H]2C(N)=O)sc1-c1ccnc(C(C)(C)C(F)(F)F)c1 [Alpelisib] (partner 2 µM)
In short: (§2)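 Relative viability was taken as the ratio of nuclei in treated wells to nuclei in vehicle wells. Lung cancer cell lines in 1536-well plates received compounds by pin tool one day after seeding, either one drug alone or a fixed anchor-drug dose plus five library-drug doses (not always all listed) in √10 steps. Nuclei were counted on 4× images after 5 days of treatment, and values are medians of duplicate plates.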

[4] = compound: Cc1ccc(C(=O)N(CCCN)[C@@H](c2nc3cc(Cl)ccc3c(=O)n2Cc2ccccc2)C(C)C)cc1 [Ispinesib] + CC1(C)CCC(c2ccc(Cl)cc2)=C(CN2CCN(c3ccc(C(=O)NS(=O)(=O)c4ccc(N[C@H](CCN5CCOCC5)CSc5ccccc5)c(S(=O)(=O)C(F)(F)F)c4)cc3)CC2)C1 [Navitoclax] (partner 0.5 µM)
In short: as §2

What does the source list for UMC-11?
relative viability ([1]; 0.001 µM): 1.01; relative viability ([1]; 0.003162 µM): 1.02; relative viability ([1]; 0.01 µM): 0.835; relative viability ([1]; 0.03162 µM): 0.32; relative viability ([1]; 0.1 µM): 0.264; relative viability ([2]; 0.01 µM): 0.975; relative viability ([2]; 0.03162 µM): 0.854; relative viability ([2]; 0.1 µM): 1.02; relative viability ([2]; 0.3162 µM): 0.546; relative viability ([2]; 1 µM): 0.875; relative viability ([2]; 1 µM, anchor plate): 1.01; relative viability ([3]; first compound 0.01 µM): 0.958; relative viability ([3]; first compound 0.03162 µM): 0.951; relative viability ([3]; first compound 0.1 µM): 0.961; relative viability ([3]; first compound 1 µM): 0.969; relative viability ([4]; first compound 0.001 µM): 0.314; relative viability ([4]; first compound 0.003162 µM): 0.371; relative viability ([4]; first compound 0.01 µM): 0.267; relative viability ([4]; first compound 0.03162 µM): 0.176; relative viability ([4]; first compound 0.1 µM): 0.216
